Measured values from patent US20120225909A1, “INDAZOLE ANALOG” (priority 2009, published 2012).

Key:
[1] = biological target: T1, human β2-adrenergic receptor (Homo sapiens, UniProt P07550); assay: Test Case 3-B: human β2-adrenergic receptor agonist activity; assay type: cell-based; settings: read-out: β2 receptor I.A.
T1 construct: expressed in transfected cells; host or cells: CHO (Chinese hamster ovary) cells, pcDNA3
Protocol: Measurement of Human β2-Adrenergic Receptor Agonist Activity
The human β2-adrenergic receptor agonist activity is measured by the same method as in Test Case 1-B using CHO (Chinese hamster ovary) cells transfected by a human β2 gene inserted in pcDNA3 (Invitrogen).

Male C57BL/6 Cr mice = assay: Test Case 10: mouse piloerection test; assay type: in vivo; settings: 10 mg/kg i.v.

T1 sequence (P07550 whole entry): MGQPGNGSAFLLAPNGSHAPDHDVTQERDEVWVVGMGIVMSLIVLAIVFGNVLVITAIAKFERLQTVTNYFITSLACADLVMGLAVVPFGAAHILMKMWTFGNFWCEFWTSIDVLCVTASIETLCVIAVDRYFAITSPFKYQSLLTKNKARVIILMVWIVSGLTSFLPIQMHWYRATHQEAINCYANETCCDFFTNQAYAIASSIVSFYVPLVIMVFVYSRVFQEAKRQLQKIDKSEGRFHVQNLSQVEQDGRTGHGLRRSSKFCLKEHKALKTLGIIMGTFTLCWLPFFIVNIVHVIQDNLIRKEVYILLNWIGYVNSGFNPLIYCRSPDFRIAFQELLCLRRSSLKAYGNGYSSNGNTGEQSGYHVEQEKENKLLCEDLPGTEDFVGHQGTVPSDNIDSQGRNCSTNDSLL

| SMILES | Emax [1] | number of experimental animals matching Score 0 (no piloerection) (Male C57BL/6 Cr mice; n=4, observation time 5 min) | number of experimental animals matching Score 0 (no piloerection) (Male C57BL/6 Cr mice; n=4, observation time 15 min) | number of experimental animals matching Score 0 (no piloerection) (Male C57BL/6 Cr mice; n=4, observation time 30 min) | number of experimental animals matching Score 0.5 (Male C57BL/6 Cr mice; n=4, observation time 30 min) | number of experimental animals matching Score 0 (no piloerection) (Male C57BL/6 Cr mice; n=4, observation time 60 min) | number of experimental animals matching Score 0.5 (Male C57BL/6 Cr mice; n=4, observation time 60 min) | number of experimental animals matching Score 0.5 (Male C57BL/6 Cr mice; n=4, observation time 15 min) |
| --- | --- | --- | --- | --- | --- | --- | --- | --- |
| O=S(=O)(Nc1cccc([C@@H](O)CNCCOc2ccc3c(OC(F)F)n[nH]c3c2)c1)C1CC1 [ex4, (R)—N-(3-(2-(2-(3-(difluoromethoxy)-indazol-6-yloxy)ethylamino)-1-hydroxyethyl)phenyl)cyclopropanesulfonamide] | 1% | 4 | 4 | 3 | 1 | 3 | 1 | – |
| Cc1n[nH]c2cc(OCCNC[C@H](O)c3cccc(NS(=O)(=O)C4CCC4)c3)ccc12 [ex3, (R)—N-(3-(1-hydroxy-2-(2-(3-methylindazol-6-yloxy)ethylamino)ethyl)phenyl)cyclobutanesulfonamide] | 1% | 4 | 3 | 3 | 1 | 4 | – | 1 |
| Cc1n[nH]c2cc(OCCNC[C@H](O)c3cccc(NS(=O)(=O)c4ccccc4F)c3)ccc12 [ex235, (R)-2-fluoro-N-(3-(1-hydroxy-2-(2-(3-methylindazol-6-yloxy)ethylamino)ethyl)phenyl)benzenesulfonamide] | 2% | 4 | 4 | 4 | – | 4 | – | – |
